Assay results published in patent US20250129062A1, “AMORPHOUS SUBSTANCES, CRYSTALS, PHARMACEUTICAL COMPOSITIONS, PREPARATION METHODS AND USES OF THIOHYDANTOIN COMPOUND OR PHARMACEUTICALLY ACCEPTABLE SALT THEREOF” (SUZHOU KINTOR PHARMACEUTICALS, INC., priority 2021, published 2025).
≈ marks a conversion by molar mass, not a printed value. Read-outs that look alike come from different tables or passages of the source.

What was measured:
[1] = Distribution of compound in sebaceous glands and blood of golden hamsters after single skin application; format: in vivo; conditions: golden hamsters, administration via skin application; listed as amorphous substance of the compound of formula I
Protocol: 6 male golden hamsters were selected for the experiment, and randomly divided evenly into 2 groups, with three golden hamsters per group. All animals were fasted overnight before administration, and were administered via a route of single application. Sampling was performed at specific time points after administration. Specific information on animal grouping, administration, sampling, etc. were detailed in Table 6.
The amorphous substance of the compound of formula I was weighed and placed in a 50 mL centrifugal tube. A mixed solvent (consisting of 75% v/v ethanol, 15% v/v glyceryl tri (2-ethylhexanoate) and 10% v/v glycerin) was added. After vortexing, heating was performed at 60° C. until the amorphous substance of the compound of formula I was completely dissolved. The amorphous substances of the compound of formula I in the two groups were prepared at 30 mg/mL and 100 mg/mL, respectively, and stored at room temperature in the dark.
After administration, blood was collected into blood collection tubes containing a heparin sodium anticoagulant at corresponding time points. Immediately after collection of whole blood, the blood collection tubes were gently shaken and placed on ice, and then centrifuged (4° C., 4000 rpm, 10 min). The supernatant plasma samples (plasma volume ≥100 μL) were collected, and stored in a refrigerator at about −80° C. The plasma samples were collected for 8 h for analysis.

[2] = Accelerated stability experiment of amorphous substance; format: physicochemical; conditions: Acceleration
Protocol: Referring to ICH Q1A stability testing of new drug substances and products, the amorphous substance of the compound of formula I prepared in example 1 was subjected to a long-term stability experiment (experimental condition: 25±2° C., RH 60%=5%) and an accelerated stability experiment (experimental condition: 40±2° C., RH 75%=5%). The purity of the sample at different times was detected by HPLC under condition 2 to evaluate the physicochemical stability of the amorphous substance of the compound of formula I. The results were as shown in Table 18.
Condition 2: • Instruments: Agilent 1260; • Chromatographic column: C18 (150 mm×4.6 mm×3.5 μm); • column temperature: 45° C.; • Mobile phase: binary mobile phase system, mobile phase A was a 10 mM aqueous ammonium acetate solution (preparation method: ammonium acetate was added into purified water, and mixed evenly, and pH value was adjusted to 4.50±0.05 with acetic acid), mobile phase B was acetonitrile; • Elution mode: gradient elution, with specific procedures as shown in Table 17; • flow rate: 1.0 mL/min; • Injection volume: 5 μL; • Detection wavelength: 270 nm; • Data acquisition: OpenLab CDS2 software.

[3] = Solubility of amorphous substance in solvent systems (supersaturated solution, oscillated 24 h at room temperature, HPLC); format: physicochemical; conditions: for solubility at 24 h: thermodynamic from solid
Protocol: The amorphous substance of the compound of formula I was prepared into supersaturated solutions with different solvents, and oscillated under a room temperature condition (a constant temperature). After oscillating for 24 h, sampling was performed, and the content of the sample was detected by HPLC under condition 1.
Condition 1: • Chromatographic column: C18 (150 mm×4.6 mm×3.5 μm); • Mobile phase: binary mobile phase system, mobile phase A was 0.1% formic acid in water, mobile phase B was acetonitrile; • Elution time: 68 min; • Elution mode: gradient elution (in the gradient elution process, mobile phase A had the maximum volume percentage of 95% and the minimum volume percentage of 10%); • Detection wavelength: 270 nm.

## Cc1ncsc1-c1ccc(CNC(=O)[C@@H]2C[C@@H](O)CN2C(=O)[C@@H](NC(=O)COCCCCOc2ccc(-c3ccc(N4C(=S)N(c5ccc(C#N)c(C(F)(F)F)c5F)C(=O)C4(C)C)cn3)cc2)C(C)(C)C)cc1
[1]
  distribution between sebaceous glands and blood after skin application: can enter sebaceous glands but cannot enter blood
[2]; 1 months
  purity (HPLC): 99.41%
[2]; 3 months
  purity (HPLC): 99.35%
[2]; 6 months
  purity (HPLC): 99.36%
[2]; 40±2° C., RH 75%=5%, 0 month
  purity (HPLC): 99.25%
[3]; Dehydrated alcohol 35%-propylene glycol 45%-water 20% (w/w)
  Solubility: >154310 µg/mL
[3]; Dehydrated alcohol 40%-propylene glycol 50%-water 10% (w/w)
  Solubility: >64560 µg/mL
[3]; dehydrated alcohol 10%-propylene glycol 20%-water 70% (w/w), aqueous with cosolvent or surfactant or cyclodextrin, Dehydrated alcohol 10%-propylene glycol 20%-water 70% (w/w), read-out: Solubility
  solubility at 24 h: 30 µg/mL (≈ 28.8 µM)
[3]; dehydrated alcohol 10%-propylene glycol 30%-water 60% (w/w), aqueous with cosolvent or surfactant or cyclodextrin, Dehydrated alcohol 10%-propylene glycol 30%-water 60% (w/w), read-out: Solubility
  solubility at 24 h: 450 µg/mL (≈ 431 µM)
[3]; dehydrated alcohol 10%: water 90% (w/w), aqueous with cosolvent or surfactant or cyclodextrin, Dehydrated alcohol 10%: water 90% (w/w), read-out: 24 h solubility
  solubility at 24 h: 140 µg/mL (≈ 134 µM)
[3]; dehydrated alcohol 20%-propylene glycol 20%-water 60% (w/w), aqueous with cosolvent or surfactant or cyclodextrin, Dehydrated alcohol 20%-propylene glycol 20%-water 60% (w/w), read-out: Solubility
  solubility at 24 h: 80 µg/mL (≈ 76.7 µM)
[3]; dehydrated alcohol 20%-propylene glycol 30%-water 50% (w/w), aqueous with cosolvent or surfactant or cyclodextrin, Dehydrated alcohol 20%-propylene glycol 30%-water 50% (w/w), read-out: Solubility
  solubility at 24 h: 440 µg/mL (≈ 422 µM)
[3]; dehydrated alcohol 20%-propylene glycol 40%-water 40% (w/w), aqueous with cosolvent or surfactant or cyclodextrin, Dehydrated alcohol 20%-propylene glycol 40%-water 40% (w/w), read-out: Solubility
  solubility at 24 h: 3790 µg/mL (≈ 3630 µM)
[3]; dehydrated alcohol 20%-propylene glycol 50%-water 30% (w/w), aqueous with cosolvent or surfactant or cyclodextrin, Dehydrated alcohol 20%-propylene glycol 50%-water 30% (w/w), read-out: Solubility
  solubility at 24 h: 12600 µg/mL (≈ 12100 µM)
[3]; dehydrated alcohol 20%: water 80% (w/w), aqueous with cosolvent or surfactant or cyclodextrin, Dehydrated alcohol 20%: water 80% (w/w), read-out: 24 h solubility
  solubility at 24 h: 140 µg/mL (≈ 134 µM)
[3]; dehydrated alcohol 30%: water 70% (w/w), aqueous with cosolvent or surfactant or cyclodextrin, Dehydrated alcohol 30%: water 70% (w/w), read-out: 24 h solubility
  solubility at 24 h: 110 µg/mL (≈ 105 µM)
[3]; dehydrated alcohol 35%-propylene glycol 45%-water 20% (w/w), aqueous with cosolvent or surfactant or cyclodextrin, Dehydrated alcohol 35%-propylene glycol 45%-water 20% (w/w), read-out: Solubility
  solubility at 24 h: > 154000 µg/mL
[3]; dehydrated alcohol 40%-propylene glycol 50%-water 10% (w/w), aqueous with cosolvent or surfactant or cyclodextrin, Dehydrated alcohol 40%-propylene glycol 50%-water 10% (w/w), read-out: Solubility
  solubility at 24 h: > 64600 µg/mL
[3]; dehydrated alcohol 40%: water 60% (w/w), aqueous with cosolvent or surfactant or cyclodextrin, Dehydrated alcohol 40%: water 60% (w/w), read-out: 24 h solubility
  solubility at 24 h: 510 µg/mL (≈ 489 µM)
[3]; dehydrated alcohol 60%: water 40% (w/w), organic solvent or mixture, Dehydrated alcohol 60%: water 40% (w/w), read-out: 24 h solubility
  solubility at 24 h: 26000 µg/mL (≈ 24900 µM)
[3]; dehydrated alcohol 70%: water 30% (w/w), organic solvent or mixture, Dehydrated alcohol 70%: water 30% (w/w), read-out: 24 h solubility
  solubility at 24 h: > 34900 µg/mL
[3]; dehydrated alcohol 80%: water 20% (w/w), organic solvent or mixture, Dehydrated alcohol 80%: water 20% (w/w), read-out: 24 h solubility
  solubility at 24 h: > 42100 µg/mL
[3]; dehydrated alcohol 90%: water 10% (w/w), organic solvent or mixture, Dehydrated alcohol 90%: water 10% (w/w), read-out: 24 h solubility
  solubility at 24 h: > 77700 µg/mL
[3]; dehydrated alcohol, organic solvent or mixture, solvent: Dehydrated alcohol, read-out: 24 h solubility
  solubility at 24 h: > 54000 µg/mL
[3]; dehydrated alcohol-PEG400-water solvent mixture, aqueous with cosolvent or surfactant or cyclodextrin, Dehydrated alcohol 10%-PEG400 10%-water 80% (w/w), read-out: Solubility
  solubility at 24 h: 10 µg/mL (≈ 9.59 µM)
[3]; dehydrated alcohol-PEG400-water solvent mixture, aqueous with cosolvent or surfactant or cyclodextrin, Dehydrated alcohol 10%-PEG400 20%-water 70% (w/w), read-out: Solubility
  solubility at 24 h: 20 µg/mL (≈ 19.2 µM)
[3]; dehydrated alcohol-PEG400-water solvent mixture, aqueous with cosolvent or surfactant or cyclodextrin, Dehydrated alcohol 20%-PEG400 20%-water 60% (w/w), read-out: Solubility
  solubility at 24 h: 160 µg/mL (≈ 153 µM)
[3]; dehydrated alcohol-PEG400-water solvent mixture, aqueous with cosolvent or surfactant or cyclodextrin, Dehydrated alcohol 20%-PEG400 30%-water 50% (w/w), read-out: Solubility
  solubility at 24 h: 910 µg/mL (≈ 872 µM)
[3]; dehydrated alcohol-PEG400-water solvent mixture, aqueous with cosolvent or surfactant or cyclodextrin, Dehydrated alcohol 20%-PEG400 40%-water 40% (w/w), read-out: Solubility
  solubility at 24 h: 7900 µg/mL (≈ 7570 µM)
[3]; dehydrated alcohol-PEG400-water solvent mixture, aqueous with cosolvent or surfactant or cyclodextrin, Dehydrated alcohol 30%-PEG400 10%-water 60% (w/w), read-out: Solubility
  solubility at 24 h: 310 µg/mL (≈ 297 µM)
[3]; dehydrated alcohol-PEG400-water solvent mixture, aqueous with cosolvent or surfactant or cyclodextrin, Dehydrated alcohol 30%-PEG400 20%-water 50% (w/w), read-out: Solubility
  solubility at 24 h: 1950 µg/mL (≈ 1870 µM)
[3]; dehydrated alcohol-PEG400-water solvent mixture, aqueous with cosolvent or surfactant or cyclodextrin, Dehydrated alcohol 30%-PEG400 30%-water 40% (w/w), read-out: Solubility
  solubility at 24 h: 11600 µg/mL (≈ 11100 µM)
[3]; dehydrated alcohol-PEG400-water solvent mixture, aqueous with cosolvent or surfactant or cyclodextrin, Dehydrated alcohol 30%-PEG400 40%-water 30% (w/w), read-out: Solubility
  solubility at 24 h: 89200 µg/mL (≈ 85500 µM)
[3]; dehydrated alcohol-PEG400-water solvent mixture, aqueous with cosolvent or surfactant or cyclodextrin, Dehydrated alcohol 35%-PEG400 30%-water 35% (w/w), read-out: Solubility
  solubility at 24 h: 35700 µg/mL (≈ 34200 µM)
[3]; dehydrated alcohol-PEG400-water solvent mixture, aqueous with cosolvent or surfactant or cyclodextrin, Dehydrated alcohol 35%-PEG400 35%-water 30% (w/w), read-out: Solubility
  solubility at 24 h: 117000 µg/mL (≈ 112000 µM)
[3]; dehydrated alcohol-PEG400-water solvent mixture, aqueous with cosolvent or surfactant or cyclodextrin, Dehydrated alcohol 35%-PEG400 40%-water 25% (w/w), read-out: Solubility
  solubility at 24 h: > 181000 µg/mL
[3]; dehydrated alcohol-PEG400-water solvent mixture, aqueous with cosolvent or surfactant or cyclodextrin, Dehydrated alcohol 35%-PEG400 45%-water 20% (w/w), read-out: Solubility
  solubility at 24 h: > 258000 µg/mL
[3]; dehydrated alcohol-PEG400-water solvent mixture, aqueous with cosolvent or surfactant or cyclodextrin, Dehydrated alcohol 40%-PEG400 10%-water 50% (w/w), read-out: Solubility
  solubility at 24 h: 3350 µg/mL (≈ 3210 µM)
[3]; dehydrated alcohol-PEG400-water solvent mixture, aqueous with cosolvent or surfactant or cyclodextrin, Dehydrated alcohol 40%-PEG400 20%-water 40% (w/w), read-out: Solubility
  solubility at 24 h: 17400 µg/mL (≈ 16700 µM)
[3]; dehydrated alcohol-PEG400-water solvent mixture, aqueous with cosolvent or surfactant or cyclodextrin, Dehydrated alcohol 40%-PEG400 30%-water 30% (w/w), read-out: Solubility
  solubility at 24 h: 111000 µg/mL (≈ 106000 µM)
[3]; dehydrated alcohol-PEG400-water solvent mixture, aqueous with cosolvent or surfactant or cyclodextrin, Dehydrated alcohol 40%-PEG400 40%-water 20% (w/w), read-out: Solubility
  solubility at 24 h: > 49100 µg/mL
[3]; dehydrated alcohol-PEG400-water solvent mixture, aqueous with cosolvent or surfactant or cyclodextrin, Dehydrated alcohol 50%-PEG400 30%-water 20% (w/w), read-out: Solubility
  solubility at 24 h: > 49700 µg/mL
[3]; dehydrated alcohol-PEG400-water solvent mixture, aqueous with cosolvent or surfactant or cyclodextrin, Dehydrated alcohol 50%-PEG400 40%-water 10% (w/w), read-out: Solubility
  solubility at 24 h: > 48500 µg/mL
[3]; dehydrated alcohol-propylene glycol-water solvent mixture, aqueous with cosolvent or surfactant or cyclodextrin, Dehydrated alcohol 10%-propylene glycol 40%-water 50% (w/w), read-out: Solubility
  solubility at 24 h: 540 µg/mL (≈ 518 µM)
[3]; dehydrated alcohol-propylene glycol-water solvent mixture, aqueous with cosolvent or surfactant or cyclodextrin, Dehydrated alcohol 10%-propylene glycol 50%-water 40% (w/w), read-out: Solubility
  solubility at 24 h: 1490 µg/mL (≈ 1430 µM)
[3]; dehydrated alcohol-propylene glycol-water solvent mixture, aqueous with cosolvent or surfactant or cyclodextrin, Dehydrated alcohol 20%-propylene glycol 10%-water 70% (w/w), read-out: Solubility
  solubility at 24 h: 40 µg/mL (≈ 38.3 µM)
[3]; dehydrated alcohol-propylene glycol-water solvent mixture, aqueous with cosolvent or surfactant or cyclodextrin, Dehydrated alcohol 30%-propylene glycol 10%-water 60% (w/w), read-out: Solubility
  solubility at 24 h: 200 µg/mL (≈ 192 µM)
[3]; dehydrated alcohol-propylene glycol-water solvent mixture, aqueous with cosolvent or surfactant or cyclodextrin, Dehydrated alcohol 30%-propylene glycol 20%-water 50% (w/w), read-out: Solubility
  solubility at 24 h: 2520 µg/mL (≈ 2420 µM)
[3]; dehydrated alcohol-propylene glycol-water solvent mixture, aqueous with cosolvent or surfactant or cyclodextrin, Dehydrated alcohol 30%-propylene glycol 30%-water 40% (w/w), read-out: Solubility
  solubility at 24 h: 6390 µg/mL (≈ 6130 µM)
